From US9725702B2, “Laccase from ganoderma lucidum capable of enhancing enzymatic degradation of lignocellulolytic biomass” (DANMARKS TEKNISKE UNIVERSITET, priority 2012, dated 2017)
Read-outs that look alike come from different tables or passages of the source. Values belong to the molecule of their own block, whether it stands above or below them.

What was measured:
[1] = test system: LacGL1 laccase from Ganoderma lucidum, expressed in Pichia pastoris; type: biochemical
Description: (§1) The laccase activity was measured based on a modified method of Ters et al. (2009). The laccase activity was defined as the amount of the enzyme required to oxidise 1 μmol of ABTS per minute at 25° C., and pH 4.7. The assay mixture contained: 0.1 M citrate-phosphate buffer (255 μL, pH 4.7), ABTS (5 μL, 4 mM (ABTS stock solution)), and pre-diluted laccase (5 μL) that ensured the linear range of Michaelis-Menten kinetics. The oxidation of ABTS was monitored at 420 nm (ε420=36800 M^−1cm^−1) for 2 min. in an Infinite 200 microtiter plate reader (Tecan, Salzburg, Austria). Laccase activity assays on the substrates: hydroquinone (248 nm), 2.6-dimethoxyphenol (470 nm), and guaiacol (436 nm) was done similarly with the substrate concentration as described in Table 2 using the following extinction coefficient values: 17.542 M^−1cm^−1, 35.645 M^−1cm^−1, and 6.400 M^−1cm^−1, respectively (Minussi et al. 2007). The data collection was monitored by the program Tecan i-control version 1.5.14.0 (Tecan, Salzburg, Austria).

fungal laccase = type: biochemical, Ganoderma lucidum
Description: as §1

[2] = test system: laccase from the crude extract of G. lucidum (Lac_GLCE); type: biochemical, Ganoderma lucidum
Description: as §1

[3] = Michaelis constant (Km) of laccase for ABTS, Hanes-Wolf plot; type: biochemical; conditions: substrate ABTS
[4] = Laccase-cellulase catalyzed hydrolysis of pretreated biomass, glucose release; type: biochemical; conditions: with cellulase 1 or 2, pH 5.1, 50° C., 30 hour, p<0.05
Description: (§2) FIG. 13. A graphical comparison of glucose released over time during hydrolysis of STEX-SCB at pH 5.1 and 50° C. by each of commercial enzyme preparations Cellulase 1 (CC2) [A]; or Cellulase 2 [B], either alone, or in combination with a laccase enzyme; the tested laccases being respectively LacGL1 and GLlac1 (LacJooSS; Q9HG17) derived from G. lucidum; and laccases derived from Agaricus bisporus (Sigma 40452), Pleurotus ostreatus (Sigma 75117) and, Trametes versicolor (Sigma 51639).
(§3) The commercial fungal laccases were purchased as lyophilized protein samples from Sigma Aldrich. A solution of each of the above 5 laccases was prepared in a citric buffer containing 20% of glycerol (pH 5.1, 100 mM).
(§4) Two different commercially available cellulase enzyme preparations used in the comparative study were “Cellulase 1” and “Cellulase 2”, which were tested in combination with each of the laccases listed above.
(§5) The three different types of pretreated biomass used in the comparative study were sugarcane bagasse, barley straw and wheat straw. The source and pre-treatment of the sugarcane bagasse by steam explosion was as set out in Example 9. […] The composition of the dry and the pretreated biomass were determined according to the US National Renewable Energy Laboratory (NREL) procedures (Sluiter et al, 2010).
(§6) The laccase-cellulase catalyzed hydrolysis of the pretreated biomass samples to release glucose was performed as follows: Hydrolysis of 5% (w/v) samples of pretreated sugarcane bagasse, barley straw, and wheat straw biomass were assayed using an Enzyme/Substrate (E/S) ratio of 0.064% w/w for laccases and of 0.4% w/w for each commercial cellulase preparation in each hydrolysis reaction. The E/S dosage was based on the total protein concentration used, as determined using Pierce BCA (BiCinchoninic Acid) protein assay kit microplate procedure according to manufacturer's instruction (Thermo Fisher Scientific, Rockford, US). […]
(§7) Laccase and cellulase-mediated hydrolysis of the 3 biomass forms, measured as glucose release, are shown graphically in FIGS. 13, 14 and 15. […]

[5] = as above; type: biochemical; conditions: with cellulase 1 or 2, pH 5.1, 50° C., 30 hour, p<0.05; remark: listed apart in the source
Description: as §2, with “14.” for “13.”, “pre-treated barley straw” for “STEX-SCB”
as §3, §4, §5, §6, §7

[6] = as above; type: biochemical; conditions: with cellulase 1 or 2, pH 5.1, 50° C., 30 hour, p<0.05; remark: listed apart in the source
Description: as §2, with “15.” for “13.”, “pre-treated wheaty straw” for “STEX-SCB”
as §3, §4, §5, §6, §7

[7] = cited from earlier work; for Km: ABTS, expressed in Pichia pastoris (Sun et al., 2012)

Molecule: O[C@H](CS)[C@H](O)CS (racemic) [Dithiothreitol]
- Inhibition ([1]; 0.5 mM): 100%
- Inhibition (fungal laccase; 0.5 mM): 100%
- Inhibition ([2]; 0.5 mM): 100%

Molecule: O=C(O)CN(CCN(CC(=O)O)CC(=O)O)CC(=O)O [EDTA]
- Inhibition [1]: 16%
- Inhibition (fungal laccase): 16-30%
- Inhibition [2]: 30%

- Inhibition ([1]; 0.0001 mM): 8%
- Inhibition ([1]; 0.0005 mM): 13%
- Inhibition ([1]; 0.001 mM): 19%
- Inhibition ([1]; 0.01 mM): 22%
- Inhibition ([1]; 0.1 mM): 46%
- Inhibition (fungal laccase; 0.1 mM): 46-56%
- Inhibition ([2]; 0.0001 mM): 23%
- Inhibition ([2]; 0.0005 mM): 24%
- Inhibition ([2]; 0.001 mM): 28%
- Inhibition ([2]; 0.01 mM): 38%
- Inhibition ([2]; 0.1 mM): 56%
Molecule: [F-].[Na+] [Sodium fluoride]

B1: Ganoderma lucidum CBS229.93 laccase: Native laccase secreted by Ganoderma lucidum CBS229.93, about 62.5 kDa (protein, listed as Ganoderma lucidum)
chain: MAKFQSLLSCVTLLFAASAYAGIGPKTDLTISNADVAPDGYTRAAVVVNGVFPAPLITGNKGDRFQLNVIDQMTNHTMLKSTSIHWHGFFQKGTNWADGPAFINQCPISSGHSFLYDFQVPDQAGTFWYHSHLSTQYCDGLRGPFVVYDPKDPLKKLYDIDDDSTVITLTDWYHVAARLGPRFPLGSDSTLINGLGRSTTNVTADLAVINVTQGKRYRFRLVSLSCDPNYTFSIDDHNMTVIEADGIETQPVTVNAIQIFSAQRYSFVLTANQTIDNYWIRANPNFGNVGFTDGINSAILRYAGADPVEPTTSQQTTQNLLNEVDLHPFVPKRTPGQPTQGGVDTAINMVFNFNGSNFFINNASFVPPTVPVLLQILSGAQAAQDLLPSGSVYTLPVNKSIELTFPATANAPGAPHPFHLHGHAFAVVRSAGSTVYNYDNPVWRDVVSTGTPAAGDNVTIRFQTDNPGPWFLHCHIDFHLEAGFAVVFAEDPTDTSLANPVPKAWSDLCPTYDALSVDDQ
- Km ([3]; pH 5): 107 µM
- Km ([3]; laccase expressed in Ganoderma lucidum CBS229.93 (native)): 107 µM

- glucose release compared to the other tested laccases [4]: significantly enhanced
- glucose release compared to the other tested laccases [5]: significantly enhanced
- glucose release compared to the other tested laccases [6]: significantly enhanced
B2: GLlac1: Laccase from Ganoderma lucidum strain 7071-9 (UniProt Q9HG17, SEQ ID NO: 29), expressed in Pichia pastoris (protein, listed as Ganoderma lucidum)
chain: MVKFQSLLSCVTLLFAASAHAGIGPKADLTISNANIAPDGYTRAAVVVNGVFPGPLITGNKGDRFQLNVIDQLTNHTMLKTTSIHWHGFFQKGTNWADGPAFINQCPIASGHSFLYDFQVPDQAGTFWYHSHLSTQYCDGLRGPFVVYDPKDPLKGLYDVDNDSTVITLSDWYHVAARLGPSFPLGSDSTLINGLGRSTTNATAGLAVINVTQGKRYRFRLVSLSCDPNYTFSIDGHDMSVIEADGIATQPVTANAIQIFSAQRYSFVLTANQTIGNYWIRANPSFGNIGFTNGINSAILRYSGADPIEPTTAQQTTQNLLNEVDLHPFVAKQTPGRATQGGTDVAINMVFNFNGSNFFINNASFTPPTVPVLLQILSGAQAAQDLLPSGSVYTLPINKSIELTFPATVNAPGAPHPFHLHGHSFAVVRSAGSTEYNYNNPVWRDVVSTGTPAAGDNVTIRFQTDNPGPWFLHCHIDFHLEAGFAVVFAEDTADTSLANHVPQAWSDLCPTYDALSADDH
- Km [7]: 995 µM
- Km ([7]; listed as GILCC1): 996 µM
- pH optimum ([7]; literature): 2.6
